The text below walks through data of patent publication US20160346225A1, “METHOD OF PREPARING INGESTIBLE MULTI-SHEET UNIT HAVING PREDETERMINED FUNCTIONS AND COMBINATIONS” (Purdue Research Foundation, priority 2011, published 2016).

The nature of data set [1]: dissolution of griseofulvin from particle-containing polymer films. The class given is physicochemical. Conditions: for dissolution profile as a function of film thickness: FIG. 5D. The text has this: A 10 micron film can be configured with the film is a single layer of particles that are held together by the polymer sheet, where the particles may or may not be larger in diameter than the film thickness. In one example, a films can be on the order of 100 microns. However, the film can be as thin as roughly the size of the largest particles.

For data set [2] the following is noted: in the dissolution medium; cited from earlier work.

Take `COC1=CC(=O)C[C@@H](C)[C@]12Oc1c(Cl)c(OC)cc(OC)c1C2=O` [griseofulvin]: the “dissolution of drug from immobilized particles at high drug load” value in data set [1] (about 72% (w/w) drug load in the film, FIG. 7) is on record as “enhanced dissolution of drug from the immobilized particles is still observed”. Besides, the “drug release rate from film matrix” value in data set [1] (film matrix (HPMC or alginate) vs same type of particles (API) free from polymer, same area of exposure, FIG. 6) was “accelerated drug release”. Also, the “dissolution profile as a function of film thickness” value in data set [1] (film thickness increased from 10 microns to 20 microns) is on record as “initially increase the dissolution profile”; in data set [1] (film thickness increased up to 70 microns), “significantly decreases the dissolution profile”. Besides, in data set [1] (range of drug loading percentages, FIG. 7), the “drug release rate as a function of drug load in the film” value was “increases with drug load”. Besides, in data set [2], the solubility result is “poorly-soluble”.
